Reference: paper PMC3997074, “Pharmacokinetic and Biodistribution Assessment of a Near Infrared-Labeled PSMA-Specific Small Molecule in Tumor-Bearing Mice” (Prostate Cancer, 2014)

Key:
[1] = target: T1, prostate-specific membrane antigen (PSMA) (Homo sapiens, UniProt Q04609); assay: NIR fluorescence saturation binding to PSMA-positive […]1 cells (PSMA-negative PC3 M-LN4 control; LNCaP apparent Kd […]); format: cell-based
T1 construct: gene FOLH1

[2] = target: T1, prostate-specific membrane antigen (PSMA); assay: competition of YC-27 […]CW binding to LNCaP cells; format: cell-based

T1 sequence (Q04609 whole entry): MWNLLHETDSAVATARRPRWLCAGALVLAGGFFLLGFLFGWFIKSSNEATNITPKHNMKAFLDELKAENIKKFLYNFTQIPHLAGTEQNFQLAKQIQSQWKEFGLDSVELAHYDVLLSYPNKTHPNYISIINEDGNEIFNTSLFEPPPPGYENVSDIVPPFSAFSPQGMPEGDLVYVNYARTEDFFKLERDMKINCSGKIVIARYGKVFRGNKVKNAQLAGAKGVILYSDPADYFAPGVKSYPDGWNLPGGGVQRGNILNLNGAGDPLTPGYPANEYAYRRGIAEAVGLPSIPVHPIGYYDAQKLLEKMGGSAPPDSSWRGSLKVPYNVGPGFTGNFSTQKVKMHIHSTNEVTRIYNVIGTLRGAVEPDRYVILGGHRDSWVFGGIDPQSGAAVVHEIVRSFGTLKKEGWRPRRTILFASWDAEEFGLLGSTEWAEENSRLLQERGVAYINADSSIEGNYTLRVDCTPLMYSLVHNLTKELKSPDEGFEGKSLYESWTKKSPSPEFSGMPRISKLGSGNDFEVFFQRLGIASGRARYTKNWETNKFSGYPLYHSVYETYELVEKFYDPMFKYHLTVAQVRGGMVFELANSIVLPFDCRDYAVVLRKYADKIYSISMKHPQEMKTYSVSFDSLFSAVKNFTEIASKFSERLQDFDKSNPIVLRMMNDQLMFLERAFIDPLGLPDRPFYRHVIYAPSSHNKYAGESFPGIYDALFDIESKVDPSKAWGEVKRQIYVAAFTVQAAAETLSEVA

Row | Substance | Kd [1] [nM] | IC50 [2] [nM]
1 | YC-27 800CW | 8 | 
2 | unlabeled YC-27 |  | 1700
